We go through two compounds from publication PMC7957578, “N-(1,3,4-Oxadiazol-2-yl)Benzamides as Antibacterial Agents against Neisseria gonorrhoeae” (International Journal of Molecular Sciences, 2021).

Converted amounts (≈) assume the structure as drawn. Where two headings read alike, the source gives them in different places.

Assay [1] deals with E. coli JW55031 (TolC Mutant). Description: MIC/MBC (CLSI broth microdilution) against E. coli TolC mutant. In kind it is cell-based. The settings on record: Escherichia coli. How it is done: (§1) The minimum inhibitory concentrations (MICs) of the tested compounds and control drugs, linezolid, vancomycin, and gentamicin, were determined using the broth microdilution method according to the guidelines outlined by the Clinical and Laboratory Standards Institute (CLSI) against clinically relevant bacterial (Staphylococcus aureus, MRSA, Escherichia coli, Enterococcus faecalis and Enterococcus faecium strains. S. aureus, MRSA, E. coli, Enterococcus faecalis and Enterococcus faecium were grown aerobically overnight on tryptone soy agar (TSA) plates at 37° C. Afterwards, a bacterial solution equivalent to 0.5 McFarland standard was prepared and diluted in cation-adjusted Mueller–Hinton broth (CAMHB) (for S. aureus, MRSA, and E. coli) to achieve a bacterial concentration of about 5 × 10^5 CFU/mL. Enterococcus faecalis and Enterococcus faecium 0.5 McFarland standard solution was diluted in tryptone soy broth (TSB) to achieve a bacterial concentration of about 5 × 10^5 CFU/mL. Compounds and control drugs were added in the first row of 96-well plates and serially diluted with the corresponding media containing bacteria. Plates were then incubated as previously described. […] The minimum bactericidal concentration (MBC) was tested by spotting 4 µL from wells with no growth onto TSA plates. Plates were incubated at 37 ° C for at least 18 h before recording the MBC. The MBC was categorized as the lowest concentration that reduced bacterial growth by 99.9% [45, 46, 47].
In general terms: Broth dilution looks for growth in wells or tubes with falling amounts of substance.

Assay [2] concerns E. coli BW25113 (wild-type strain). Description: MIC/MBC (CLSI broth microdilution) against E. coli BW25113 wild type. Conditions: E. coli BW25113 wild-type strain; for MBC: read-out: MBC. The format is cell-based, Escherichia coli. On the procedure:
as §1

A further assay concerns N. gonorrhoeae 200. Description: MIC/MBC against N. gonorrhoeae clinical isolate 200. The settings on record: Neisseria gonorrhoeae. The format is cell-based. How it is done: (§2) Briefly, bacteria were grown overnight on chocolate agar II at 37° C in the presence of 5% CO2. Afterwards, a bacterial suspension equivalent to 1.0 McFarland standard was prepared and diluted in brucella broth supplemented with yeast extract, neopeptone, hematin, pyridoxal, and NAD. Test agents were added in the first row of the 96-well plates and serially diluted along the plates. Plates were then incubated at 37° C in the presence of 5% CO2 for 24 h. […] Plates were then incubated at 37 ° C in the presence of 5% CO2 for 24 h. The MBC was categorized as the lowest concentration that reduced bacterial growth by 99.9% [45, 46, 47].

The test system of another assay is S. aureus ATCC 25923. Description: MIC/MBC (CLSI broth microdilution) against S. aureus ATCC 25923. Conditions: Staphylococcus aureus, ATCC25923, S. aureus ATCC 25923. The format is cell-based. How it is done: as §1
Another assay deals with N. gonorrhoeae 197. Briefly: MIC/MBC against N. gonorrhoeae clinical isolate 197. Conditions: Neisseria gonorrhoeae. The format is cell-based. How it is done: as §2
In a further assay the test system is VRE. faecalisATCC 51575. Briefly: MIC/MBC (CLSI broth microdilution) against VRE faecalis ATCC 51575. The format is cell-based. The settings on record: Enterococcus, VRE faecalis ATCC 51575. How it is done: as §1
Assay [3] concerns L. monocytogenes ATCC 19115. Description: MIC/MBC (CLSI broth microdilution) against L. monocytogenes ATCC 19115. Conditions: Listeria monocytogenes, ATCC19115, L. monocytogenes ATCC 19115. In kind it is cell-based.
The test system of assay [4] is tested bacterial strains (Table 3). Briefly: MBC versus MIC against the panel of Gram-positive and Gram-negative pathogens. The format is cell-based. The settings on record: MBCs more than three-fold higher than MICs, strains of Table 3. How it is done: While the focus of these new N-(1,3,4-oxadiazol-2-yl)benzamides is towards N. gonorrhoeae, we proceeded to test their activity against other Gram-positive and Gram-negative pathogens. Intriguingly, HSGN-235, HSGN-237, and HSGN-238 had potent activity against the tested Gram-positive bacterial pathogens. For instance, all three compounds had potent activity against the staphylococcal strains, with MICs ranging from 0.25 to 1 µg/mL (Table 3). Furthermore, HSGN-235, HSGN-237, and HSGN-238 maintained potent activity against clinically relevant Gram-positive bacterial pathogens such as vancomycin-resistant enterococci (VRE) and Listeria monocytogenes (Table 3). Additionally, we moved to test if HSGN-235, HSGN-237, and HSGN-238 were active against other Gram-negative bacterial pathogens. […] This lack of activity against Gram-negative bacteria appears to be due to HSGN-235, HSGN-237, and HSGN-238 being a substrate for efflux.
The minimum inhibitory concentrations (MICs) of the tested compounds and control drugs, linezolid, vancomycin, and gentamicin, were determined using the broth microdilution method according to the guidelines outlined by the Clinical and Laboratory Standards Institute (CLSI) against clinically relevant bacterial (Staphylococcus aureus, MRSA, Escherichia coli, Enterococcus faecalis and Enterococcus faecium strains. S. aureus, MRSA, E. coli, Enterococcus faecalis and Enterococcus faecium were grown aerobically overnight on tryptone soy agar (TSA) plates at 37° C. Afterwards, a bacterial solution equivalent to 0.5 McFarland standard was prepared and diluted in cation-adjusted Mueller–Hinton broth (CAMHB) (for S. aureus, MRSA, and E. coli) to achieve a bacterial concentration of about 5 × 10^5 CFU/mL. Enterococcus faecalis and Enterococcus faecium 0.5 McFarland standard solution was diluted in tryptone soy broth (TSB) to achieve a bacterial concentration of about 5 × 10^5 CFU/mL. Compounds and control drugs were added in the first row of 96-well plates and serially diluted with the corresponding media containing bacteria. […]

Assay [5] has as its system panel drug-resistant pathogenic N. gonorrhoeae strains. Briefly: MIC/MBC against a panel of drug-resistant N. gonorrhoeae strains. The format is cell-based, Neisseria gonorrhoeae. The settings on record: MBC the same as or one-fold higher than MIC.
Another assay has as its system N. gonorrhoeae WHO L. Briefly: MIC/MBC against N. gonorrhoeae WHO L reference strain. Conditions: Neisseria gonorrhoeae. In kind it is cell-based. On the procedure:
as §2

The next assay relates to MRSA USA300. Description: MIC/MBC (CLSI broth microdilution) against MRSA USA300. The format is cell-based, methicillin-resistant Staphylococcus aureus. The settings on record: Staphylococcus aureus, MRSA USA300. On the procedure:
as §1

The next assay relates to VRE. faecium ATCC 700221. Description: MIC/MBC (CLSI broth microdilution) against VRE faecium ATCC 700221. The format is cell-based. The settings on record: Enterococcus, VRE faecium ATCC 700221. On the procedure:
as §1

A further assay relates to N. gonorrhoeae 166. Description: MIC/MBC against N. gonorrhoeae clinical isolate 166. The format is cell-based. The settings on record: Neisseria gonorrhoeae. On the procedure:
as §2

The subject of a further assay is VRE. faecalis ATCC 51299. Description: MIC/MBC (CLSI broth microdilution) against VRE faecalis ATCC 51299. The format is cell-based. The settings on record: Enterococcus, VRE faecalis ATCC 51299. On the procedure:
as §1

Another assay deals with N. gonorrhoeae 194. Description: MIC/MBC against N. gonorrhoeae clinical isolate 194. The format is cell-based. Conditions: Neisseria gonorrhoeae. On the procedure: as §2
A further assay relates to N. gonorrhoeae 165. Description: MIC/MBC against N. gonorrhoeae clinical isolate 165. The format is cell-based. Conditions: Neisseria gonorrhoeae. On the procedure: as §2
The next assay relates to E. faecalis ATCC 29212. Description: MIC/MBC (CLSI broth microdilution) against E. faecalis ATCC 29212. In kind it is cell-based. Conditions: Enterococcus faecalis, ATCC29212, E. faecalis ATCC 29212. On the procedure:
as §1

A further assay has as its system N. gonorrhoeae. Briefly: MIC against N. gonorrhoeae in presence of fetal bovine serum. Conditions: Neisseria gonorrhoeae, 24 h. In kind it is cell-based.
In assay [6] the test system is N. gonorrhoeae strain 181. Description: MIC by broth microdilution against N. gonorrhoeae strain 181. Conditions: N. gonorrhoeae strain 181. The format is cell-based, Neisseria gonorrhoeae. On the procedure: as §2
The mark [7] stands for this setting: Escherichia coli, read-out: MIC.

The term MBC denotes the lowest tested concentration that kills the bacteria rather than only halting them. For orientation: MIC means the smallest concentration in the dilution series that meets the test's criterion for growth inhibition. With `CNC(C)C1CCC(N)C(OC2C(N)CC(N)C(OC3OCC(C)(O)C(NC)C3O)C2O)O1` (centres unmarked) [Gentamicin, gentamicin, reference compound], the MBC in assay [1] and in assay [2] (Escherichia coli) was 0.25 µg/mL (≈ 0.523 µM) in each case. Also, the MIC in [1] and in assay [2] (setting [7]) was 0.25 µg/mL (≈ 0.523 µM) throughout.
In the case of `O=C(Nc1nnc(-c2ccc(C(F)(F)F)cc2)o1)c1ccc(OC(F)(F)F)c(F)c1` [HSGN-235, 3-Fluoro-4-(trifluoromethoxy)-N-(5-(4-(trifluoromethyl)phenyl)-1,3,4-oxadiazol-2-yl)benzamide], the MBC is 2 µg/mL (≈ 4.6 µM) in the assay with N. gonorrhoeae 200; more than 64 µg/mL in the assay on S. aureus ATCC 25923 (read-out: MBC); 2 µg/mL (≈ 4.6 µM) with N. gonorrhoeae 197; more than 64 µg/mL in the assay with VRE. faecalisATCC 51575 (read-out: MBC); more than 64 µg/mL in assay [1]; 64 µg/mL (≈ 147 µM) in assay [3] (read-out: MBC). Also, the MBC in the assay on N. gonorrhoeae WHO L was 2 µg/mL (≈ 4.6 µM); in the assay with MRSA USA300 (read-out: MBC), 64 µg/mL (≈ 147 µM); in the assay on VRE. faecium ATCC 700221 (read-out: MBC) it was 32 µg/mL (≈ 73.5 µM); in the assay on N. gonorrhoeae 166 it was 2 µg/mL (≈ 4.6 µM); in the assay on VRE. faecalis ATCC 51299 (read-out: MBC), 64 µg/mL (≈ 147 µM); in the assay with N. gonorrhoeae 194, 1 µg/mL (≈ 2.3 µM). In addition, the MBC in the assay with N. gonorrhoeae 165 was 2 µg/mL (≈ 4.6 µM); in the assay on E. faecalis ATCC 29212 (read-out: MBC), 32 µg/mL (≈ 73.5 µM); in assay [2] (Escherichia coli) it was more than 8 µg/mL. Also, the MIC stood at 2 µg/mL (≈ 4.6 µM) against N. gonorrhoeae 200; 1 µg/mL (≈ 2.3 µM) in the assay on S. aureus ATCC 25923 (read-out: MIC); 1 µg/mL (≈ 2.3 µM) in the assay on N. gonorrhoeae 197; 2 µg/mL (≈ 4.6 µM) in the assay with VRE. faecalisATCC 51575 (read-out: MIC); 4 µg/mL (≈ 9.19 µM) in assay [1]; 1 µg/mL (≈ 2.3 µM) in assay [3] (read-out: MIC). Further, the MIC with N. gonorrhoeae WHO L was 1 µg/mL (≈ 2.3 µM); in the assay with MRSA USA300 (read-out: MIC), 0.5 µg/mL (≈ 1.15 µM); in the assay on VRE. faecium ATCC 700221 (read-out: MIC) it was 1 µg/mL (≈ 2.3 µM); in the assay with N. gonorrhoeae 166 it was 2 µg/mL (≈ 4.6 µM); with VRE. faecalis ATCC 51299 (read-out: MIC) it was 1 µg/mL (≈ 2.3 µM); against N. gonorrhoeae 194, 1 µg/mL (≈ 2.3 µM). In addition, the MIC in the assay on N. gonorrhoeae 165 was 2 µg/mL (≈ 4.6 µM); in the assay with E. faecalis ATCC 29212 (read-out: MIC), 4 µg/mL (≈ 9.19 µM); with N. gonorrhoeae (5% FBS added to the media) it was 4 µg/mL; in the assay with N. gonorrhoeae (10% FBS added to the media), 8 µg/mL; in assay [2] it was more than 8 µg/mL; in assay [2] (setting [7]) it was more than 8 µg/mL. Besides, the MIC result was “moderate activity” in assay [6] and 16 µg/mL (≈ 36.8 µM) in assay [6] (Neisseria gonorrhoeae, read-out: MIC). The “type of activity from MBC versus MIC” value in assay [4] was “bacteriostatic agents”; in [5], “bactericidal activity”.
